Activity calls are given as the source filed them. No cut-off for these calls is given here.
What was measured:
[1] = system: HL-60; experiment: Cell cycle arrest in human HL60 cells assessed as accumulation at G0/G1 phase at 1 uM after 72 hrs by propidium iodide staining-based flow cytometry (reference value: 65.7 +/- 0.1%); assay type: functional
[2] = system: HL-60; experiment: Cell cycle arrest in human HL60 cells assessed as accumulation at G0/G1 phase at 50 uM after 72 hrs by propidium iodide staining-based flow cytometry (reference value: 65.7 +/- 0.1%); assay type: functional
[3] = system: HL-60; experiment: Cell cycle arrest in human HL60 cells assessed as accumulation at S phase at 1 uM after 48 hrs by propidium iodide staining-based flow cytometry (reference value: 21.5 +/- 1.0%); assay type: functional
[4] = system: HL-60; experiment: Cell cycle arrest in human HL60 cells assessed as accumulation at S phase at 10 uM after 48 hrs by propidium iodide staining-based flow cytometry (reference value: 21.5 +/- 1.0%); assay type: functional
[5] = system: HL-60; experiment: Cell cycle arrest in human HL60 cells assessed as accumulation at S phase at 25 uM after 48 hrs by propidium iodide staining-based flow cytometry (reference value: 21.5 +/- 1.0%); assay type: functional
[6] = system: HL-60; experiment: Cell cycle arrest in human HL60 cells assessed as accumulation at S phase at 50 uM after 48 hrs by propidium iodide staining-based flow cytometry (reference value: 21.5 +/- 1.0%); assay type: functional
[7] = system: HL-60; experiment: Cell cycle arrest in human HL60 cells assessed as accumulation at S phase at 1 uM after 72 hrs by propidium iodide staining-based flow cytometry (reference value: 16.4 +/- 0.8%); assay type: functional
[8] = system: HL-60; experiment: Cell cycle arrest in human HL60 cells assessed as accumulation at S phase at 10 uM after 72 hrs by propidium iodide staining-based flow cytometry (reference value: 16.4 +/- 0.8%); assay type: functional
[9] = system: HL-60; experiment: Cell cycle arrest in human HL60 cells assessed as accumulation at S phase at 50 uM after 72 hrs by propidium iodide staining-based flow cytometry (reference value: 16.4 +/- 0.8%); assay type: functional
[10] = system: HL-60; experiment: Cell cycle arrest in human HL60 cells assessed as accumulation at G2/M phase at 1 uM after 48 hrs by propidium iodide staining-based flow cytometry (reference value: 18.4 +/- 1.3%); assay type: functional
[11] = system: HL-60; experiment: Cell cycle arrest in human HL60 cells assessed as accumulation at G2/M phase at 10 uM after 48 hrs by propidium iodide staining-based flow cytometry (reference value: 18.4 +/- 1.3%); assay type: functional
[12] = system: HL-60; experiment: Cell cycle arrest in human HL60 cells assessed as accumulation at G2/M phase at 25 uM after 48 hrs by propidium iodide staining-based flow cytometry (reference value: 18.4 +/- 1.3%); assay type: functional
[13] = system: HL-60; experiment: Cell cycle arrest in human HL60 cells assessed as accumulation at G2/M phase at 50 uM after 48 hrs by propidium iodide staining-based flow cytometry (reference value: 18.4 +/- 1.3%); assay type: functional
[14] = system: HL-60; experiment: Cell cycle arrest in human HL60 cells assessed as accumulation at G2/M phase at 1 uM after 72 hrs by propidium iodide staining-based flow cytometry (reference value: 14.8 +/- 0.7%); assay type: functional
[15] = system: HL-60; experiment: Cell cycle arrest in human HL60 cells assessed as accumulation at Gn phase at 25 uM after 48 hrs by propidium iodide staining-based flow cytometry (reference value: 2.49 +/- 0.4%); assay type: functional
[16] = system: HL-60; experiment: Cell cycle arrest in human HL60 cells assessed as accumulation at Gn phase at 1 uM after 72 hrs by propidium iodide staining-based flow cytometry (reference value: 2.49 +/- 0.3%); assay type: functional
[17] = system: HL-60; experiment: Cell cycle arrest in human HL60 cells assessed as accumulation at Gn phase at 25 uM after 72 hrs by propidium iodide staining-based flow cytometry (reference value: 2.49 +/- 0.3%); assay type: functional
[18] = system: HL-60; experiment: Cell cycle arrest in human HL60 cells assessed as accumulation at Gn phase at 50 uM after 72 hrs by propidium iodide staining-based flow cytometry (reference value: 2.49 +/- 0.3%); assay type: functional
[19] = target: Casein kinase I isoform delta (Homo sapiens, UniProt P48730); experiment: Inhibition of human recombinant casein kinase-1 delta using casein as substrate after 60 mins by kinase-glo luminescence assay
Chain of Casein kinase I isoform delta (P48730 whole entry, canonical isoform): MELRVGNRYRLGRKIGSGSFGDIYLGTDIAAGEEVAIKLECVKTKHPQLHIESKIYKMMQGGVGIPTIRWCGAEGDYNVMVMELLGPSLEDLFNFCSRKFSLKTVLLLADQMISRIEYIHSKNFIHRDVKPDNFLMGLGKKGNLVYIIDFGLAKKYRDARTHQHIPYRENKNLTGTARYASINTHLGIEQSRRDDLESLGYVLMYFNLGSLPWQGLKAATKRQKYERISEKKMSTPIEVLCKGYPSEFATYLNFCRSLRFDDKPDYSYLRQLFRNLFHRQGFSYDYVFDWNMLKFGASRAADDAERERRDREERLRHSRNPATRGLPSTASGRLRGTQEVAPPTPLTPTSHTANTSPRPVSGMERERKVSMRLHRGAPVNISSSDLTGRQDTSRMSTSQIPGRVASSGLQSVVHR

[20] = target: Glycogen synthase kinase-3 beta (Homo sapiens, UniProt P49841); experiment: Inhibition of human recombinant GSK-3 beta after 30 mins by luminescence assay
Chain of Glycogen synthase kinase-3 beta (P49841 whole entry): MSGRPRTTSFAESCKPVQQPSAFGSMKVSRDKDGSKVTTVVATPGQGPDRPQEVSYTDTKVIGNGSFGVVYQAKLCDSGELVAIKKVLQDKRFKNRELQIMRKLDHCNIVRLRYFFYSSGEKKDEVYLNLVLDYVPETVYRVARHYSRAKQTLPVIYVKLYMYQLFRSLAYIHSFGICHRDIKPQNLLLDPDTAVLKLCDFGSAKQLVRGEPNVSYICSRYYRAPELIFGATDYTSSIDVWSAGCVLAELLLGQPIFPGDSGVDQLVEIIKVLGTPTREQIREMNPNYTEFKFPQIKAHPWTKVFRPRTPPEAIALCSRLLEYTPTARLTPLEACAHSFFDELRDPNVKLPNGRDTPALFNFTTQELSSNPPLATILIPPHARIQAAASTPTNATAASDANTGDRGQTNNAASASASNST

[21] = target: Serine/threonine-protein kinase B-raf (Homo sapiens) (UniProt P15056); experiment: Competitive binding to B-RAF kinase (unknown origin) at 100 nM to 100 uM after 60 to 120 mins by FRET analysis
Chain of Serine/threonine-protein kinase B-raf (Homo sapiens) (P15056 whole entry): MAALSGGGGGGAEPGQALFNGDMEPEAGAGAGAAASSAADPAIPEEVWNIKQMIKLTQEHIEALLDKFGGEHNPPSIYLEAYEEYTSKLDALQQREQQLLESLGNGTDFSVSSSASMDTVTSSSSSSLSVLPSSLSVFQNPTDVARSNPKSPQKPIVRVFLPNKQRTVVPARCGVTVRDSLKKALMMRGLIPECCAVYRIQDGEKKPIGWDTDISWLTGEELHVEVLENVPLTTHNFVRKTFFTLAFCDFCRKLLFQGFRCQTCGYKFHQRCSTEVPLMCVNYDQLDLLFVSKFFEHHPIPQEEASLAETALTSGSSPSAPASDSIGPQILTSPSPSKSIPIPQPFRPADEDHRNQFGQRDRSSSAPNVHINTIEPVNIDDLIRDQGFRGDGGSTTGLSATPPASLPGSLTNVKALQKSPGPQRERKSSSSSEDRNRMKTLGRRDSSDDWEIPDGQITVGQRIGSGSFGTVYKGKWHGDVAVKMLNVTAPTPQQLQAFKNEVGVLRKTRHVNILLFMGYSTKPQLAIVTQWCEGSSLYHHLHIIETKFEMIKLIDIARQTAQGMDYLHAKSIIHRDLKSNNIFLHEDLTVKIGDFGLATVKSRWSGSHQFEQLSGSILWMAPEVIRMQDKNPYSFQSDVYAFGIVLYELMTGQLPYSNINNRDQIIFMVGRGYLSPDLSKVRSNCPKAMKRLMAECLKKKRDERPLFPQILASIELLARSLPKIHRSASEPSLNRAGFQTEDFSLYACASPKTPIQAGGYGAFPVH

[22] = system: HL-60; experiment: Induction of apoptosis in human HL60 cells assessed as cell shrinkage at 50 uM after 72 hrs by microscopy relative to vehicle-treated control; assay type: functional, cell-based
[23] = system: HL-60; experiment: Induction of apoptosis in human HL60 cells assessed as nuclear fragmentation at 50 uM after 72 hrs by microscopy relative to vehicle-treated control; assay type: functional, cell-based
[24] = system: HL-60; experiment: Induction of apoptosis in human HL60 cells assessed as cell membrane blebbing at 50 uM after 72 hrs by microscopy relative to vehicle-treated control; assay type: functional, cell-based
[25] = system: HL-60; experiment: Cell cycle arrest in human HL60 cells assessed as accumulation at pre-G1 phase at 10 uM after 48 hrs by propidium iodide staining-based flow cytometry (reference value: 0.17%); assay type: functional
[26] = system: HL-60; experiment: Cell cycle arrest in human HL60 cells assessed as accumulation at pre-G1 phase at 25 uM after 48 hrs by propidium iodide staining-based flow cytometry (reference value: 0.17%); assay type: functional
[27] = system: HL-60; experiment: Cell cycle arrest in human HL60 cells assessed as accumulation at pre-G1 phase at 50 uM after 48 hrs by propidium iodide staining-based flow cytometry (reference value: 0.17%); assay type: functional
[28] = system: HL-60; experiment: Cell cycle arrest in human HL60 cells assessed as accumulation at pre-G1 phase at 1 uM after 72 hrs by propidium iodide staining-based flow cytometry (reference value: 0.14%); assay type: functional
[29] = system: HL-60; experiment: Cell cycle arrest in human HL60 cells assessed as accumulation at pre-G1 phase at 10 uM after 72 hrs by propidium iodide staining-based flow cytometry (reference value: 0.14%); assay type: functional
[30] = system: HL-60; experiment: Cell cycle arrest in human HL60 cells assessed as accumulation at pre-G1 phase at 25 uM after 72 hrs by propidium iodide staining-based flow cytometry (reference value: 0.14%); assay type: functional
[31] = system: HL-60; experiment: Cell cycle arrest in human HL60 cells assessed as accumulation at pre-G1 phase at 50 uM after 72 hrs by propidium iodide staining-based flow cytometry (reference value: 0.14%); assay type: functional
[32] = system: HL-60; experiment: Cell cycle arrest in human HL60 cells assessed as accumulation at G0/G1 phase at 1 uM after 48 hrs by propidium iodide staining-based flow cytometry (reference value: 57.0 +/- 1.0%); assay type: functional
[33] = system: HL-60; experiment: Cell cycle arrest in human HL60 cells assessed as accumulation at G0/G1 phase at 10 uM after 48 hrs by propidium iodide staining-based flow cytometry (reference value: 57.0 +/- 1.0%); assay type: functional
[34] = system: HL-60; experiment: Cell cycle arrest in human HL60 cells assessed as accumulation at G0/G1 phase at 25 uM after 48 hrs by propidium iodide staining-based flow cytometry (reference value: 57.0 +/- 1.0%); assay type: functional
[35] = system: HL-60; experiment: Cell cycle arrest in human HL60 cells assessed as accumulation at G0/G1 phase at 50 uM after 48 hrs by propidium iodide staining-based flow cytometry (reference value: 57.0 +/- 1.0%); assay type: functional

For `Cl.N=C(N)Nc1ccc(Oc2cccc(NC(=N)Nc3ccc(Cl)c(C(F)(F)F)c3)c2)cc1`, the Activity [1] was 61.7%, the Activity [2] was 43.7% and the Activity [3] was 20.6%. For the same compound, the Activity [4] was 14.7%, the Activity [5] was 7.15% and the Activity [6] was 15.7%. It also gave an Activity [7] of 17.1%, an Activity [8] of 14.1% and an Activity [9] of 14.4%. It also gave an Activity [10] of 20.4%, an Activity [11] of 14.6% and an Activity [12] of 20.2%. It also gave an Activity [13] of 18.6%, an Activity [14] of 16.7% and an Activity [15] of 2.17%. It also gave an Activity [16] of 3.23%, an Activity [17] of 2.56% and an Activity [18] of 1.75%. For the same compound, the IC50 [19] was > 100 µM, the IC50 [20] was > 100 µM and the Activity [21] was “inactive”. For the same compound, the Activity [22] was “Active”, the Activity [23] was “Active” and the Activity [24] was “Active”. It also gave an Activity [25] of 0.32%, an Activity [26] of 1.75% and an Activity [27] of 12.5%. The Activity [28] was 0.13%, the Activity [29] was 0.23% and the Activity [30] was 2.22%. The Activity [31] was 25.1%, the Activity [32] was 56.6% and the Activity [33] was 68.9%. It also gave an Activity [34] of 69.2% and an Activity [35] of 44.6%.
